Measurements reported in patent US9267949B2, “Alkylamino BODIPY dyes as selective fluorescent probes for proteins and mouse embryonic stem cells” (National University of Singapore, priority 2011, dated 2016).

Tests used:
[1] = Spectroscopic properties of the BDM library (absorbance and emission maxima); assay type: physicochemical
[2] = Quantum yield measurements; assay type: physicochemical; details: referred to Rhodamine B in EtOH, excitation 510 nm, emission integrated 540-800 nm
How it was run: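 Integrated fluorescence emission from 540 to 800 nm was referenced to Rhodamine B in EtOH (Φ=0.70) after excitation at 510 nm. Quantum yield was calculated with correction for solvent refractive index and absorbance at the excitation wavelength.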

[3] = in EtOH, excitation at 510 nm; cited from earlier work

SMILES	λmax (ABS) [1] [nm]	λmax (EM) [1] [nm]	φ (quantum yield) [2]	Quantum yield of standard (ΦRho-B) [3]
CC1=CC(/C=C/c2ccc(C)o2)=[N+]2C1=C(CCN)c1cccn1[B-]2(F)F [BDM-135]	577	601	0.10	–
CC1=CC(/C=C/c2ccc(N(C)C)cc2[N+](=O)[O-])=[N+]2C1=C(CCN)c1cccn1[B-]2(F)F [BDM-78]	591	–	0.01	–
COc1cc(OC)c(OC)cc1/C=C/C1=[N+]2C(=C(CCN)c3cccn3[B-]2(F)F)C(C)=C1 [BDM-144]	578	612	0.05	–
CC1=CC(/C=C/c2ccc(Oc3ccc(C)cc3)cc2)=[N+]2C1=C(CCN)c1cccn1[B-]2(F)F [BDM-300]	562	579	0.44	–
CCOc1ccc(/C=C/C2=[N+]3C(=C(CCN)c4cccn4[B-]3(F)F)C(C)=C2)c(OCC)c1 [BDM-316]	572	610	0.46	–
CC1=CC(/C=C/c2ccccc2I)=[N+]2C1=C(CCN)c1cccn1[B-]2(F)F [BDM-384]	551	565	0.32	–
CC1=CC(/C=C/c2ccc(I)cc2)=[N+]2C1=C(CCN)c1cccn1[B-]2(F)F [BDM-237]	558	572	0.35	–
COc1cc(/C=C/C2=[N+]3C(=C(CCN)c4cccn4[B-]3(F)F)C(C)=C2)cc(OC)c1 [BDM-209]	555	567	0.38	–
COc1ccccc1/C=C/C1=[N+]2C(=C(CCN)c3cccn3[B-]2(F)F)C(C)=C1 [BDM-198]	559	574	0.59	–
CC1=CC(/C=C/c2c(C)cccc2Cl)=[N+]2C1=C(CCN)c1cccn1[B-]2(F)F [BDM-285]	544	561	0.51	–
COc1ccc(-c2ccc(/C=C/C3=[N+]4C(=C(CCN)c5cccn5[B-]4(F)F)C(C)=C3)o2)cc1Cl [BDM-195]	600	663	0.03	–
CC1=CC(/C=C/c2ccc(-c3ccccc3)c(F)c2)=[N+]2C1=C(CCN)c1cccn1[B-]2(F)F [BDM-425]	562	576	0.12	–
COc1cc(/C=C/C2=[N+]3C(=C(CCN)c4cccn4[B-]3(F)F)C(C)=C2)ccc1F [BDM-312]	557	568	0.18	–
COc1cc2ccccc2c(/C=C/C2=[N+]3C(=C(CCN)c4cccn4[B-]3(F)F)C(C)=C2)c1OC [BDM-301]	563	586	0.41	–
COc1ccc(/C=C/C2=[N+]3C(=C(CCN)c4cccn4[B-]3(F)F)C(C)=C2)c(OC)c1C [BDM-347]	566	591	0.57	–
Cc1ccc2cccc(/C=C/c3cc(C)c4n3[B-](F)(F)[N+]3=CC=CC3=C4CCN)c2c1 [BDM-34]	547	581	0.65	–
CCN(CC)c1ccc2c(-c3ccccc3C(=O)O)c3ccc(=[N+](CC)CC)cc-3oc2c1.[Cl-] [Rhodamine B]	–	–	–	0.70
CC1=CC(/C=C/c2ccccc2Cl)=[N+]2C1=C(CCN)c1cccn1[B-]2(F)F [BDM-207]	553	566	0.24	–
CC1=CC(/C=C/c2ccc(Cl)c(F)c2)=[N+]2C1=C(CCN)c1cccn1[B-]2(F)F [BDM-437]	555	566	0.21	–
CC1=CC(/C=C/c2cccc(OC(F)(F)C(F)F)c2)=[N+]2C1=C(CCN)c1cccn1[B-]2(F)F [BDM-345]	551	564	0.22	–
CC1=CC(/C=C/c2ccc3c(c2)OC(F)(F)O3)=[N+]2C1=C(CCN)c1cccn1[B-]2(F)F [BDM-332]	552	562	0.61	–
CCCCOc1ccc(/C=C/c2cc(C)c3n2[B-](F)(F)[N+]2=CC=CC2=C3CCN)cc1 [BDM-46]	564	583	0.53	–
CC1=CC(/C=C/c2ccc(Br)s2)=[N+]2C1=C(CCN)c1cccn1[B-]2(F)F [BDM-100]	571	582	0.43	–
CC1=CC(/C=C/c2cc(F)ccc2O)=[N+]2C1=C(CCN)c1cccn1[B-]2(F)F [BDM-318]	563	576	0.11	–
COc1ccc(/C=C/C2=[N+]3C(=C(CCN)c4cccn4[B-]3(F)F)C(C)=C2)cc1C [BDM-335]	565	591	0.78	–
Cc1cccc(/C=C/c2cc(C)c3n2[B-](F)(F)[N+]2=CC=CC2=C3CCN)c1 [BDM-9]	554	567	0.33	–
Cc1cc(/C=C/c2ccc(-c3ccccc3)cc2)n2c1C(CCN)=C1C=CC=[N+]1[B-]2(F)F [BDM-5]	561	575	0.50	–
